System: Ha-CoV-2(Luc)
Experiment: microbe, parasite or virus in culture
Format: cell-based, SARS-CoV-2
Details: Severe acute respiratory syndrome coronavirus 2, HEK-293T, read-out: IC50 (inhibition of Ha-CoV-2(Luc) infection)

CCOC(=O)c1c(CSc2ccccc2)n(C)c2cc(Br)c(O)c(CN(C)C)c12 [Arbidol, Arbidol (Umifenovir)]
IC50: 16 µM

From patent publication US11473064B2, “Hybrid alphavirus-SARS-CoV-2 particle and methodology of making and using same” (GEORGE MASON RESEARCH FOUNDATION, INC., priority 2020, dated 2022)
